Test results published in PubChem BioAssay AID248 (DTP/NCI, 2004).
Where “and” joins values, the source holds several entries; their conditions need not be identical. Equal values may be shown once. Inconclusive results and toxic doses are left out.

Tested on: L1210 leukemia ip in BDF1 mice, survival T/C
Test: NCI In Vivo Anticancer Drug Screen. Data for tumor model L1210 Leukemia (intraperitoneal) in B6D2F1 (BDF1) mice
Settings: higher = longer survival
Outline: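 Ratio derived from survival: compound-dosed mice over vehicle-dosed mice, all bearing a transplantable tumor.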

[1] = endpoint: mean survival time, dose: 100.0 mg/kg/injection, schedule: Q04DX002 (ip), vehicle: saline with Tween-80
[2] = endpoint: mean survival time, dose: 200.0 mg/kg/injection, schedule: Q04DX002 (ip), vehicle: saline with Tween-80
[3] = endpoint: mean survival time, dose: 400.0 mg/kg/injection, schedule: Q04DX002 (ip), vehicle: saline with Tween-80

S=P(N1CCOCC1)(N1CC1)N1CC1
T/C (endpoint: mean survival time, dose: 2.4 mg/kg/injection, schedule: Q01DX001 (ip), vehicle: saline): 106 % of control
T/C (endpoint: mean survival time, dose: 2.4 mg/kg/injection, schedule: Q07DX003 (ip), vehicle: saline): 104 % of control
T/C (endpoint: mean survival time, dose: 2.5 mg/kg/injection, schedule: Q01DX Z (ip), vehicle: carboxymethylcellulose (CMC)): 109 % of control
T/C (endpoint: mean survival time, dose: 2.5 mg/kg/injection, schedule: Q#A X Z (ip), vehicle: saline): 102 % of control
T/C (endpoint: mean survival time, dose: 4.3 mg/kg/injection, schedule: Q01DX001 (ip), vehicle: saline): 117 % of control
T/C (endpoint: mean survival time, dose: 4.3 mg/kg/injection, schedule: Q07DX003 (ip), vehicle: saline): 113 % of control
T/C (endpoint: mean survival time, dose: 5.0 mg/kg/injection, schedule: Q01DX006 (iv), vehicle: saline): 107 % of control
T/C (endpoint: mean survival time, dose: 5.0 mg/kg/injection, schedule: Q01DX009 (ip), vehicle: saline): 101 % of control and 104 % of control
T/C (endpoint: mean survival time, dose: 5.0 mg/kg/injection, schedule: Q01DX010 (ip), vehicle: saline): 97 % of control and 103 % of control
T/C (endpoint: mean survival time, dose: 5.0 mg/kg/injection, schedule: Q01DX Z (im), vehicle: saline): 104 % of control
T/C (endpoint: mean survival time, dose: 5.0 mg/kg/injection, schedule: Q01DX Z (ip), vehicle: carboxymethylcellulose (CMC)): 102 % of control
T/C (endpoint: mean survival time, dose: 5.0 mg/kg/injection, schedule: Q01DX Z (ip), vehicle: saline): 110 % of control
T/C (endpoint: mean survival time, dose: 5.0 mg/kg/injection, schedule: Q01DX Z (sc), vehicle: saline): 107 % of control
T/C (endpoint: mean survival time, dose: 5.0 mg/kg/injection, schedule: Q#A X Z (ip), vehicle: saline): 106 % of control
T/C (endpoint: mean survival time, dose: 8.7 mg/kg/injection, schedule: Q01DX001 (ip), vehicle: saline): 103 % of control
T/C (endpoint: mean survival time, dose: 8.7 mg/kg/injection, schedule: Q07DX003 (ip), vehicle: saline): 115 % of control
T/C (endpoint: mean survival time, dose: 10.0 mg/kg/injection, schedule: Q01DX006 (iv), vehicle: saline): 109 % of control
T/C (endpoint: mean survival time, dose: 10.0 mg/kg/injection, schedule: Q01DX009 (ip), vehicle: saline): 101 % of control and 104 % of control
T/C (endpoint: mean survival time, dose: 10.0 mg/kg/injection, schedule: Q01DX010 (ip), vehicle: saline): 114 % of control and 124 % of control
T/C (endpoint: mean survival time, dose: 10.0 mg/kg/injection, schedule: Q01DX Z (im), vehicle: saline): 114 % of control
T/C (endpoint: mean survival time, dose: 10.0 mg/kg/injection, schedule: Q01DX Z (ip), vehicle: carboxymethylcellulose (CMC)): 115 % of control
T/C (endpoint: mean survival time, dose: 10.0 mg/kg/injection, schedule: Q01DX Z (ip), vehicle: saline): 116 % of control
T/C (endpoint: mean survival time, dose: 10.0 mg/kg/injection, schedule: Q01DX Z (sc), vehicle: saline): 107 % of control
T/C (endpoint: mean survival time, dose: 15.0 mg/kg/injection, schedule: Q03DX006 (ip), vehicle: saline): 118 % of control
T/C (endpoint: mean survival time, dose: 17.5 mg/kg/injection, schedule: Q01DX001 (ip), vehicle: saline): 106 % of control
T/C (endpoint: mean survival time, dose: 18.0 mg/kg/injection, schedule: Q01DX003 (ip), vehicle: saline): 118 % of control
T/C (endpoint: mean survival time, dose: 20.0 mg/kg/injection, schedule: Q01DX009 (ip), vehicle: saline): 108 % of control and 120 % of control
T/C (endpoint: mean survival time, dose: 20.0 mg/kg/injection, schedule: Q01DX010 (ip), vehicle: saline): 118 % of control and 119 % of control
T/C (endpoint: mean survival time, dose: 20.0 mg/kg/injection, schedule: Q01DX Z (im), vehicle: saline): 168 % of control
T/C (endpoint: mean survival time, dose: 20.0 mg/kg/injection, schedule: Q01DX Z (ip), vehicle: carboxymethylcellulose (CMC)): 123 % of control
T/C (endpoint: mean survival time, dose: 20.0 mg/kg/injection, schedule: Q01DX Z (ip), vehicle: saline): 160 % of control
T/C (endpoint: mean survival time, dose: 20.0 mg/kg/injection, schedule: Q01DX Z (oral), vehicle: saline): 122 % of control
T/C (endpoint: mean survival time, dose: 26.0 mg/kg/injection, schedule: Q01DX003 (ip), vehicle: saline): 166 % of control
T/C (endpoint: mean survival time, dose: 30.0 mg/kg/injection, schedule: Q03DX006 (ip), vehicle: saline): 160 % of control
T/C (endpoint: mean survival time, dose: 35.0 mg/kg/injection, schedule: Q01DX001 (ip), vehicle: saline): 120 % of control
T/C (endpoint: mean survival time, dose: 40.0 mg/kg/injection, schedule: Q01DX003 (ip), vehicle: saline): 150 % of control and 173 % of control
T/C (endpoint: mean survival time, dose: 40.0 mg/kg/injection, schedule: Q01DX009 (ip), vehicle: saline): 101 % of control and 104 % of control
T/C (endpoint: mean survival time, dose: 40.0 mg/kg/injection, schedule: Q01DX010 (ip), vehicle: saline): 104 % of control
T/C (endpoint: mean survival time, dose: 40.0 mg/kg/injection, schedule: Q01DX Z (im), vehicle: saline): 110 % of control
T/C (endpoint: mean survival time, dose: 40.0 mg/kg/injection, schedule: Q01DX Z (ip), vehicle: saline): 89 % of control
T/C (endpoint: mean survival time, dose: 40.0 mg/kg/injection, schedule: Q#A X Z (ip), vehicle: saline): 92 % of control
T/C (endpoint: mean survival time, dose: 60.0 mg/kg/injection, schedule: Q01DX003 (ip), vehicle: saline): 156 % of control and 178 % of control
T/C (endpoint: mean survival time, dose: 70.0 mg/kg/injection, schedule: Q07DX003 (ip), vehicle: saline): 178 % of control
T/C (endpoint: mean survival time, dose: 80.0 mg/kg/injection, schedule: Q01DX006 (iv), vehicle: saline): 164 % of control
T/C (endpoint: mean survival time, dose: 80.0 mg/kg/injection, schedule: Q01DX Z (oral), vehicle: saline): 100 % of control
T/C (endpoint: mean survival time, dose: 140.0 mg/kg/injection, schedule: Q01DX001 (ip), vehicle: saline): 107 % of control
T/C (endpoint: mean survival time, dose: 280.0 mg/kg/injection, schedule: Q01DX001 (ip), vehicle: saline): 102 % of control
T/C (endpoint: median survival time, dose: 5.0 mg/kg/injection, schedule: Q01DX009 (ip), vehicle: saline): 100 % of control and 111 % of control
T/C (endpoint: median survival time, dose: 10.0 mg/kg/injection, schedule: Q01DX009 (ip), vehicle: saline): 106 % of control and 122 % of control
T/C (endpoint: median survival time, dose: 20.0 mg/kg/injection, schedule: Q01DX009 (ip), vehicle: saline): 166 % of control and 168 % of control
T/C (endpoint: median survival time, dose: 40.0 mg/kg/injection, schedule: Q01DX009 (ip), vehicle: saline): 122 % of control

O=C(O)C1=C/C(=C\C=[N+]2c3cc(O)c(OC4OC(CO)C(O)C(O)C4O)cc3CC2C(=O)[O-])CC(C(=O)O)N1 (configuration not stated)
T/C (endpoint: mean survival time, dose: 100.0 mg/kg/injection, schedule: Q04DX003 (ip), vehicle: saline with Tween-80): 97 % of control
T/C (endpoint: mean survival time, dose: 200.0 mg/kg/injection, schedule: Q04DX003 (ip), vehicle: saline with Tween-80): 94 % of control
T/C (endpoint: mean survival time, dose: 400.0 mg/kg/injection, schedule: Q04DX003 (ip), vehicle: saline with Tween-80): 95 % of control

CC/C(C)=C\CC/C(C)=C/COc1cccc(OC)c1
T/C [1]: 108 % of control
T/C [2]: 101 % of control
T/C [3]: 103 % of control

O=Cc1ccc[nH]1
T/C (endpoint: mean survival time, dose: 100.0 mg/kg/injection, schedule: Q04DX003 (ip), vehicle: other): 93 % of control
T/C (endpoint: mean survival time, dose: 200.0 mg/kg/injection, schedule: Q04DX003 (ip), vehicle: other): 96 % of control
T/C (endpoint: mean survival time, dose: 400.0 mg/kg/injection, schedule: Q04DX003 (ip), vehicle: other): 110 % of control

S=C=NCc1ccc(Br)cc1
T/C (endpoint: mean survival time, dose: 1.25 mg/kg/injection, schedule: Q01DX009 (ip), vehicle: other): 95 % of control
T/C (endpoint: mean survival time, dose: 2.5 mg/kg/injection, schedule: Q01DX009 (ip), vehicle: other): 100 % of control
T/C (endpoint: mean survival time, dose: 2.5 mg/kg/injection, schedule: Q04DX003 (ip), vehicle: other): 103 % of control
T/C (endpoint: mean survival time, dose: 5.0 mg/kg/injection, schedule: Q01DX009 (ip), vehicle: other): 97 % of control
T/C (endpoint: mean survival time, dose: 5.0 mg/kg/injection, schedule: Q04DX003 (ip), vehicle: other): 103 % of control
T/C (endpoint: mean survival time, dose: 10.0 mg/kg/injection, schedule: Q01DX001 (ip), vehicle: other): 93 % of control
T/C (endpoint: mean survival time, dose: 10.0 mg/kg/injection, schedule: Q04DX003 (ip), vehicle: other): 88 % of control

CC(CCCN(CCCl)CCCl)Nc1c2ccccc2nc2c1ccc1ccccc12 (configuration not stated)
T/C (endpoint: mean survival time, dose: 0.15 mg/kg/injection, schedule: Q01DX009 (ip), vehicle: saline): 109 % of control
T/C (endpoint: mean survival time, dose: 0.31 mg/kg/injection, schedule: Q01DX009 (ip), vehicle: saline): 110 % of control
T/C (endpoint: mean survival time, dose: 0.63 mg/kg/injection, schedule: Q01DX009 (ip), vehicle: saline): 122 % of control
T/C (endpoint: mean survival time, dose: 1.25 mg/kg/injection, schedule: Q01DX009 (ip), vehicle: saline): 94 % of control
T/C (endpoint: mean survival time, dose: 2.5 mg/kg/injection, schedule: Q01DX009 (ip), vehicle: saline): 106 % of control

C=CCNC(=S)OCC
T/C [1]: 100 % of control
T/C [2]: 97 % of control
T/C [3]: 103 % of control

COc1ccc(-n2c(O)c(N=Nc3ccc(Cl)cc3)c(=O)n(-c3ccccc3)c2=S)cc1
T/C (endpoint: mean survival time, dose: 37.5 mg/kg/injection, schedule: Q01DX001 (ip), vehicle: Klucel (hydroxypropylcellulose) (HPC)): 89 % of control
T/C (endpoint: mean survival time, dose: 75.0 mg/kg/injection, schedule: Q01DX001 (ip), vehicle: Klucel (hydroxypropylcellulose) (HPC)): 94 % of control
T/C (endpoint: mean survival time, dose: 150.0 mg/kg/injection, schedule: Q01DX001 (ip), vehicle: Klucel (hydroxypropylcellulose) (HPC)): 92 % of control

COC(=O)NC1CC/C=C\CCC1I (configuration not stated)
T/C (endpoint: mean survival time, dose: 200.0 mg/kg/injection, schedule: Q04DX002 (ip), vehicle: DMSO): 102 % of control

Cc1ccc(C(=O)C(C)(C)C)c(C)c1
T/C (endpoint: mean survival time, dose: 100.0 mg/kg/injection, schedule: Q01DX009 (ip), vehicle: saline): 97 % of control
T/C (endpoint: mean survival time, dose: 200.0 mg/kg/injection, schedule: Q01DX009 (ip), vehicle: saline): 97 % of control
T/C (endpoint: mean survival time, dose: 400.0 mg/kg/injection, schedule: Q01DX009 (ip), vehicle: saline): 93 % of control
